{"source": "patent US9580465B2", "about": "“Tissue protective peptides and peptide analogs for preventing and treating diseases and disorders associated with tissue damage” (ARAIM PHARMACEUTICALS, INC., priority 2008, dated 2017)", "key": {"[1]": {"test_system": "partial body irradiation of 15 Gy", "assay": "Radiomitigating activity in a gastrointestinal screening assay", "format": "in vivo, C57BL/6 mice", "details": "15 mice per group, 30 ug/kg subcutaneously from 24 hours, once a day, FIG. 22", "procedure": "(§1) The ability of peptides useful in the current therapeutic method to mitigate the effects of a radioactive agent on the gastrointestinal system was evaluated in a murine model of radiation injury. Briefly, 30 C57BL/6 mice (male, 20-30 gm) were used in the study.\nThe radiation was administered to the mice using a Pantak HF320 X-ray (Agfa NDT Ltd., Reading, UK), operated at 300 kV, 10 mA. The X-ray tube has additional filtration to give a radiation quality of 2.3 mm Cu half-value layer (HVL). Mice had their head, thorax, and forelimbs shielded to protect their bone marrow and select for the GI response. The mice were restrained in a jig and positioned at a distance of 700 mm focus from the focus of the X-ray tube. Irradiation was delivered at a dose rate of 75.5 cGy/min (unshielded) and 70.0 cGy/min (shielded) for a period sufficient to expose the mice to 15 Gy of radiation.\nAt 24 hours following radiation, 15 of the mice were administered Peptide ID (30 ug/kg subcutaneously) and then once a day for the duration of the study and remaining 15 mice (control group) received PBS (subcutaneously) and then once a day for the duration of the study.\nThe mice were weighed and monitored once a day until signs of diarrhea and early euthanasia appeared, then twice a day."}, "[2]": {"test_system": "total body gamma radiation", "assay": "Radiomitigating activity in hematopoietic screening assay", "format": "in vivo, C57BL/6 mice", "details": "for survival at day 30: 30 ug/kg subcutaneously from 24 hrs after irradiation, daily for 29 days", "procedure": "as §1, with “hematopoietic” for “gastrointestinal”, “80” for “30”, “(50% female and 50% male, 15-28” for “(male, 20-30”, “study were divided into two groups.” for “study.”\nIn both groups the radiation was administered to the mice as a single uniform total body dose of gamma radiation from a ^137Cs radiation source (GammaCell 40; Nordion International, Kanata, Ontario, Canada) at an exposure rate of 65-69 cGy/minute+/−2.5 cGy.\nGroup A received a LD70/30 dose of radiation (796 cGy) and then 20 of the mice were administered Peptide ID (30 ug/kg subcutaneously) at 24 hrs after irradiation and then once a day for 29 days. The remaining 20 mice (control group) received PBS (subcutaneously) at 24 hrs after irradiation and then once a day for 29 days.\nThe remaining 20 mice (control group) received PBS (subcutaneously) at 24 hrs after irradiation and then once a day for 29 days.\nThe mice were monitored for survival once a day until signs of early euthanasia appeared, then twice/day until day 30."}, "[3]": {"test_system": "middle cerebral artery occlusion", "assay": "Middle cerebral artery occlusion model", "format": "in vivo, Sprague Dawley rats", "details": "2 μg/kg bw i.v. upon reperfusion, then three injections at 2-hour intervals", "procedure": "Sprague Dawley rats (8 per group) are subjected to the following MCAO protocol Surgery was performed in accordance with the teachings of Brines et al, 2000, PNAS USA 97:10526-10531 (hereby incorporated by reference in its entirety. Briefly, the rats are anesthetized with chloral hydrate (400 mg/kg-bw, i.p.), the carotid arteries were visualized, and the right carotid was occluded by two sutures and severed. A burr hole adjacent and rostral to the right orbit allowed visualization of the middle cerebral artery (“MCA”), which was cauterized distal to the rhinal artery. To produce a penumbra (border zone) surrounding this fixed MCA lesion, the contralateral carotid artery was occluded for 1 hour by using […] provided by a fine forceps and then re-opened.\nThe rats were administered saline, Peptide ID as a single i.v. dose (2 μg/kg bw), or Peptide IX, […], SEQ ID NO: 301), a scrambled version of Peptide IC, SEQ ID NO: 281, as a single Lv. dose (2 μg/kg bw) upon reperfusion, followed by three additional injections at 2-hour intervals. For assessment of injury, rats are subjected to behavioral testing or the volume of the lesion is determined by tetrazolium staining of brain sections performed 24 hours post surgery in accordance with the previously noted protocol.\nThe volume of the lesion was then determined by tetrazolium staining of brain sections performed 24 hours post surgery.\nRats were also tested in a foot fault behavioral protocol. Rats were tested on an elevated stainless steel grid floor 30 cm×30 cm with grid size of 30 mm according to the protocol of Markgraf et al., 1992, Brain Research 575:238-246 (hereby incorporated by reference in its entirety). When placed on the grid, a rat would attempt to move around and occasionally place a foot, rather than on the grid, through a grid opening (“foot fault”). The number of foot faults was measured for a 1 minute period.\nThe number of foot faults is indicative of the cognitive impairment of the rats due to the MCAO, the fewer the number of foot faults the less cognitive impairment."}, "9 L gliosarcoma cells": {"test_system": "9 L gliosarcoma cells", "assay": "9 L gliosarcoma implantation model, delayed treatment", "format": "in vivo, CD Fisher rats", "procedure": "In accordance with the accordance with the protocol of Lampson et al. Cancer Res. 53:176-82:1993 described above, CD Fisher rats were implanted with 9 L gliosarcoma cells transfected with the LacZ gene by use of a Hamilton syringe. 100,000 cells in 10 microliters were injected into the right caudate.\nID with a short plasma half life, another receiving Peptide IW (pegylated form of Peptide IC) and the third group received saline. Peptides were given at a dose of 25 nmole/kg body weight. Three weeks later, the animals were sacrificed and serial 1 mm thick coronal sections cut through the brain and incubated with 5-bromo-4-chloro-3-indolyl-[beta]-D-galactopyranoside (Xgal). Tumor cells (containing the LacZ gene) metabolized Xgal into a dark blue stain, localizing the extent of tumor. High resolution digital images were obtained and the areas stained blue determined using planimetric methodology. Data is expressed as total area of tumor infiltration."}, "histamine": {"test_system": "histamine", "assay": "Histamine induced ear inflammation", "format": "in vivo, Sprague Dawley rats", "details": "30 μg/kg IV; 15, 30, 45 and sixty minutes; versus saline; FIG. 15", "procedure": "The ability of peptides useful in the current therapeutic method to antagonize the pro-inflammatory affects of histamine were evaluated in a mouse model of histamine-induced edema disclosed in Brand et al. “Tea tree oil reduces histamine-induced oedema in murine ears,” Inflamm. Res. 51 (2002) 283-289. Briefly, 24 Sprague Dawley rats (male, 250 gm) were used in the study. Prior to the histamine challenge, each rat was anesthetized and the thickness of the rat's ear was measured using a spring loaded micrometer. 20 ul of 60 mg/ml solution of histamine diphosphate was injected intradermally into an ear of the rat and 30 seconds later the rat received either (1) 30 μg/kg Peptide ID IV (12 rats) or (2) Saline IV (12 rats). Then 20 ul of 60 mg/ml solution of histamine diphosphate was injected intradermally to the rat's other ear. The thickness of the rats ears was then measured using a caliper at 15, 30, 45 and sixty minutes following the histamine challenge."}}, "note": "“Also recorded” adds a separate entry of the source. Square brackets hold non-standard residues; d marks the D form. pGlu = O=C1CC[C@@H](C(=O)O)N1"}
{"sequence": "UEQLERALNSS ([pGlu]EQLERALNSS-OH; also: acetate/ammonium mixed salt) [Peptide ID, first glutamine replaced with pyroglutamate]", "values": [{"measurement": "number of mice surviving to day 20", "setting": "[1]", "result": 6, "unit": "mice"}, {"measurement": "survival at day 30", "setting": "[2]; 796 cGy (LD70/30), FIG. 21A", "result": 45, "unit": "%"}, {"measurement": "thirty-day survival and overall survival time versus PBS", "setting": "[2]; 796 cGy and 831 cGy, 30 ug/kg subcutaneously daily", "result": "significantly increased the overall survival time"}, {"measurement": "survival at day 30", "setting": "[2]; 831 cGy (LD90/30), FIG. 21B", "result": 20, "unit": "%"}, {"measurement": "infarct volume (volume of lesion)", "setting": "[3]; 24 hours post surgery, tetrazolium staining", "result": "225±20", "unit": "mm^3"}, {"measurement": "number of foot faults in 1 minute period", "setting": "[3]; after MCAO, FIG. 5", "result": "11.2±1.1", "unit": "foot faults"}, {"measurement": "tumor size (total area of tumor infiltration)", "setting": "9 L gliosarcoma cells; 25 nmole/kg i.p. daily starting two weeks after implantation, three weeks, FIG. 13, 14", "result": "smaller than the saline group, it was not significantly different; also recorded: reduced the size of tumor"}, {"measurement": "tumor size", "setting": "9 L gliosarcoma cells; daily treatment begun immediately after implantation, FIG. 14", "result": "substantially smaller tumors; also recorded: reduction in size of the tumor"}, {"measurement": "ear thickness (edema) after histamine challenge", "setting": "histamine", "result": "reduced the amount of edema; also recorded: less inflammation"}]}
